We go through 22 molecules from US8546377B2 (AbbVie Inc., priority 2009, dated 2013).

One assay deals with T1, 5HT2B receptors (Homo sapiens, UniProt P41595).
T1 construct: expressed in transfected cells; host or cells: CHO-K1 cells
Kind of assay: Human 5-HT2B functional assay in CHO-K1 cells (calcium flux, FLIPR). It counts as cell-based. As for the experimental part: (§1) (iii) Human 5-HT2C and 5-HT2B Functional Assay in CHO-K1 Cells
(§2) CHO-K1 cells over-expressing 5HT2C or 5HT2B receptors were grown in 1272 cm^2 flasks to 70-80% confluency in UltraCHO media supplemented with 1% dialyzed fetal bovine serum (FBS), 250 μg/mL zeocin, 100 U/mL penicillin/streptomycin, and 400 μg/mL geneticin. The cells were dissociated from the flasks using 0.05% trypsin, resuspended in freezing media and stored in liquid nitrogen until use. Calcium flux experiments were done using frozen cells. The cells were diluted in media containing 1% dialyzed FBS and 100 U/mL penicillin/streptomycin and plated into 384-well poly-D-Lysine coated plates (15,000 cells/well). Then the plates were incubated overnight in a cell incubator at 37° C., 5% CO2. On the next day, the growth media was replaced with media without FBS and further incubated overnight. On day three, the changes in intracellular Ca^2+ were determined using calcium sensitive fluorescent dye, Ca4 (MDS Analytical Technologies, Sunnyvale, Calif.) by loading 15 μL of diluted dye with 2.5 mM probenecid into the cells containing media and incubated at room temperature for 60 minutes in dark.
(§3) Fluorescence measurements were read at 25° C. at an excitation wavelength of 480 nm and an emission wavelength of 530 nm in FLIPR (MDS). Baseline fluorescence was measured for the first 10 seconds and then 15 μL of 4× concentrations of serotonin/test compounds was added to the cell plate. The fluorescence intensity was captured every second for the first 1 minute followed by every 5 seconds for an additional 2 minutes. The increase in fluorescent response was determined and was normalized to the response of serotonin. The concentration response of compounds was done from a starting concentration of 10 μM, 1:10 dilution across 6 wells with a final dimethyl sulfoxide concentration of 0.2% and was fitted using a 4-parameter logistic equation. The concentration at which a compound exerts half its maximal effect was named as ‘effective concentration 50’ or ‘EC50’.
(§4) Emax is the maximum functional response or efficacy expressed as a percentage relative to the effect of serotonin.
(In general: Calcium flux is commonly read through the fluorescence of an indicator in the cells.)

Another assay addresses T2, 5HT2C receptors (Homo sapiens, UniProt P28335).
T2 sequence (P28335 33-458): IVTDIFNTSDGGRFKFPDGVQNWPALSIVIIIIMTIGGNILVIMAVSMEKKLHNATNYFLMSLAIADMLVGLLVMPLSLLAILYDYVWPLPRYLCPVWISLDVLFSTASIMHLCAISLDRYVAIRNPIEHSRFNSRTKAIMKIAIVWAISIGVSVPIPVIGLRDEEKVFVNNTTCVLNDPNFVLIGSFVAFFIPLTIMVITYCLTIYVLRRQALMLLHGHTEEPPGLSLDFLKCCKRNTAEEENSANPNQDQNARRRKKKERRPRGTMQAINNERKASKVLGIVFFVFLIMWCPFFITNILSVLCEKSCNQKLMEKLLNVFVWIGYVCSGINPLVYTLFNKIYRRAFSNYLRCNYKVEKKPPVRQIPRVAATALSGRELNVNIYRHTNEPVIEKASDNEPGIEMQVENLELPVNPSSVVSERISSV
Description: Human 5-HT2C functional assay in CHO-K1 cells (calcium flux, FLIPR). Type of assay: cell-based. Also noted: expressed in transfected cells; host or cells: CHO-K1 cells. How it is done: as §1, §2, §3, §4

Setting [1] is: CHO-K1, read-out: Emax (%), 5-HT2B Agonist Activity.
[2] abbreviates: CHO-K1, read-out: Emax (%), 5-HT2c Agonist Activity, CHO-K1 cells, percentage relative to the effect of serotonin.
[3] abbreviates: CHO-K1 cells over-expressing 5HT2B, calcium flux, read-out: EC50 (μM), 5-HT2B Agonist Activity.
The mark [4] stands for this setting: CHO-K1 cells, percentage relative to the effect of serotonin, read-out: Emax (%), 5-HT2B Agonist Activity.
The mark [5] stands for this setting: CHO-K1 cells over-expressing 5HT2C, calcium flux, read-out: EC50 (μM), 5-HT2c Agonist Activity.
[6] abbreviates: CHO-K1 cells, percentage relative to the effect of serotonin, read-out: Emax (%), 5-HT2c Agonist Activity.
The mark [7] stands for this setting: CHO-K1, read-out: Emax (%), 5-HT2c Agonist Activity.

Molecules are shown by their SMILES. Like-named read-outs stand apart in the source and are kept apart here.

T1 sequence (P41595 whole entry): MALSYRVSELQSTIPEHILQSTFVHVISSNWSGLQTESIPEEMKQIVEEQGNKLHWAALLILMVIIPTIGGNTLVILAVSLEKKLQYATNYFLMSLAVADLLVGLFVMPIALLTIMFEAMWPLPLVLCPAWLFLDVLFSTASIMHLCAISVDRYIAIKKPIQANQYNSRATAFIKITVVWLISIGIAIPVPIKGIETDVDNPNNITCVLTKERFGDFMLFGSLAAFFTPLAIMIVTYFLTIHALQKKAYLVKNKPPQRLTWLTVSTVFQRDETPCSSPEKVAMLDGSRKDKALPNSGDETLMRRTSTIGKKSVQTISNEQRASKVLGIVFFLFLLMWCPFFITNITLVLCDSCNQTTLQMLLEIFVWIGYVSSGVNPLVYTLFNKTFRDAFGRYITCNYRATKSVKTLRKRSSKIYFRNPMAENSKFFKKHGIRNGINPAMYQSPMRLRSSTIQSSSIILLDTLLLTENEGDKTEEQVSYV

As usually defined, the EC50 is the midpoint of the concentration-response curve. By Emax is commonly meant the greatest response seen or fitted, relative to the assay's reference. For `CCc1ccc2c(c1)N1CCNC[C@@H]1CCO2` [Example 211, (4aS)-10-ethyl-2,3,4,4a,5,6-hexahydro-1H-pyrazino[2,1-d][1,5]benzoxazepine], the concentration giving a half-maximal response (EC50) at 5HT2B receptors was 0.04 µM; at 5HT2C receptors it was 0.02 µM. Further, the maximum response (Emax) at 5HT2B receptors (setting [1]) came to 45%; at 5HT2C receptors (setting [2]) it was 70%.

`Fc1ccccc1-c1ccc2c(c1)N1CCNC[C@@H]1CCO2` [Example 203, (4aS)-10-(2-fluorophenyl)-2,3,4,4a,5,6-hexahydro-1H-pyrazino[2,1-d][1,5]-benzoxazepine]: the EC50 on 5HT2B receptors (setting [3]) was 2 µM; at 5HT2C receptors (setting [5]), 0.02 µM. The Emax at 5HT2B receptors (setting [4]) is 15%; on 5HT2C receptors (setting [6]), more than 120%.

Turning to `Cc1ccc2c(c1)N1CCNC[C@H]1CCO2` [Example 257, (4aR)-10-methyl-2,3,4,4a,5,6-hexahydro-1H-pyrazino[2,1-d][1,5]benzoxazepine], the values for the EC50 on 5HT2B receptors and on 5HT2C receptors were 0.02 µM and 0.001 µM, respectively. The Emax on 5HT2B receptors (setting [1]) is 60%; at 5HT2C receptors (setting [2]), 90%.

Consider `O=C1CC2CNCCN2c2cc(-c3cccc(OCc4ccccc4)c3)ccc2N1` (stereo not shown) [Example 95, 10-[3-(benzyloxy)phenyl]-1,2,3,4,4a,5-hexahydropyrazino[1,2-a][1,5]benzodiazepin-6(7H)-one], for which the values for the EC50 on 5HT2B receptors (setting [3]) and at 5HT2C receptors (setting [5]) were more than 10 µM and 0.02 µM, respectively. For the same molecule, the maximal effect (Emax) on 5HT2C receptors (setting [6]) was more than 120%.

Turning to `O=C1CC2CNCCN2c2cc(-c3ccccn3)ccc2N1` (stereo not shown) [Example 71, 10-(pyridin-2-yl)-1,2,3,4,4a,5-hexahydropyrazino[1,2-a][1,5]benzodiazepin-6(7H)-one], the EC50 at 5HT2B receptors was 0.02 µM; at 5HT2C receptors, 0.002 µM. In addition, the results for the Emax on 5HT2B receptors (setting [1]) and on 5HT2C receptors (setting [2]) were 100% and more than 120%, respectively.

For the molecule `CN1CCN2c3cc(-c4cccc(S(C)(=O)=O)c4)ccc3OCC[C@H]2C1` [Example 221, (4aS)-3-methyl-10-[3-(methylsulfonyl)phenyl]-2,3,4,4a,5,6-hexahydro-1H-pyrazino[2,1-d][1,5]benzoxazepine], the EC50 was more than 10 µM at 5HT2B receptors (setting [3]) and 0.1 µM on 5HT2C receptors (setting [5]). Also, at 5HT2C receptors (setting [6]), the Emax was 50%.

On to `CN1CCN2c3ccc(Cl)cc3OCC[C@H]2C1` [Example 220, (4aS)-9-chloro-3-methyl-2,3,4,4a,5,6-hexahydro-1H-pyrazino[2,1-d][1,5]benzoxazepine], for which the EC50 is more than 10 µM on 5HT2B receptors and 0.04 µM on 5HT2C receptors. In addition, the maximal effect (Emax) at 5HT2C receptors (setting [2]) was 40%.

Consider `Brc1cccc2c1OCC[C@H]1CNCCN21` [Example 236, (4aS)-8-bromo-2,3,4,4a,5,6-hexahydro-1H-pyrazino[2,1-d][1,5]benzoxazepine], for which the EC50 on 5HT2B receptors was found to be 0.01 µM; at 5HT2C receptors it was 0.002 µM. For the same molecule, the maximal response (Emax) amounted to 10% at 5HT2B receptors (setting [1]) and 100% at 5HT2C receptors (setting [2]).

As to `Cc1cc(Cl)cc2c1OCC[C@H]1CNCCN21` [Example 227, (4aS)-10-chloro-8-methyl-2,3,4,4a,5,6-hexahydro-1H-pyrazino[2,1-d][1,5]benzoxazepine], the 50% effective concentration (EC50) stood at 0.05 µM at 5HT2B receptors and 0.008 µM at 5HT2C receptors. In addition, the values for the maximal effect (Emax) at 5HT2B receptors (setting [1]) and on 5HT2C receptors (setting [2]) were 20% and 85%, respectively.

For `COc1ccc(-c2ccc3c(c2)N2CCNCC2CC(=O)N3)cc1` (stereo not shown) [Example 58, 10-(4-methoxyphenyl)-1,2,3,4,4a,5-hexahydropyrazino[1,2-a][1,5]benzodiazepin-6(7H)-one], the results for the EC50 on 5HT2B receptors (setting [3]) and at 5HT2C receptors (setting [5]) were more than 10 µM and 0.2 µM, respectively. Further, the Emax at 5HT2C receptors (setting [6]) turned out to be 110%.

As for `O=C1C[C@H]2CNCCN2c2cc(OCCc3ccccc3Cl)ccc2N1` [Example 172, (4aS)-10-[2-(2-chlorophenyl)ethoxy]-1,2,3,4,4a,5-hexahydropyrazino[1,2-a][1,5]benzodiazepin-6(7H)-one], the EC50 at 5HT2B receptors (setting [3]) was more than 10 µM; on 5HT2C receptors (setting [5]), 0.002 µM. Moreover, the maximal response (Emax) on 5HT2C receptors (setting [6]) is more than 120%.

For the molecule `FCCN1CCN2c3ccccc3OCC[C@@H]2C1` [Example 269, (4aR)-3-(2-fluoroethyl)-2,3,4,4a,5,6-hexahydro-1H-pyrazino[2,1-d][1,5]benzoxazepine], the maximum response (Emax) at 5HT2B receptors (setting [1]) turned out to be 50%; on 5HT2C receptors (setting [7]) it was 90%. The half-maximal effective concentration (EC50) at 5HT2B receptors (setting [3]) came to 0.6 µM; on 5HT2C receptors (setting [5]), 0.09 µM.

Consider `Clc1ccc2c(c1)OCC[C@@H]1CNCCN21` [Example 260, (4aR)-9-chloro-2,3,4,4a,5,6-hexahydro-1H-pyrazino[2,1-d][1,5]benzoxazepine], for which the results for the EC50 at 5HT2B receptors and at 5HT2C receptors were 0.03 µM and 0.0003 µM, respectively. Besides, the maximal effect (Emax) at 5HT2B receptors (setting [1]) was found to be 90%; on 5HT2C receptors (setting [2]) it was 100%.

Take `Oc1cccc(-c2ccc3c(c2)N2CCNC[C@@H]2CCO3)c1` [Example 201, 3-[(4aS)-2,3,4,4a,5,6-hexahydro-1H-pyrazino[2,1-d][1,5]benzoxazepin-10-yl]phenol]: the figures for the 50% effective concentration (EC50) on 5HT2B receptors (setting [3]) and at 5HT2C receptors (setting [5]) were more than 10 µM and 0.2 µM, respectively. On 5HT2C receptors (setting [6]), the Emax is more than 120%.

`CC(C)c1cccc(-c2ccc3c(c2)N2CCNCC2CC(=O)N3)c1` (stereo not shown) [Example 92, 10-(3-isopropylphenyl)-1,2,3,4,4a,5-hexahydropyrazino[1,2-a][1,5]benzodiazepin-6(7H)-one]: the EC50 was more than 10 µM at 5HT2B receptors (setting [3]) and 0.02 µM on 5HT2C receptors (setting [5]). The maximal response (Emax) at 5HT2C receptors (setting [6]) was more than 120%.

With `Clc1cc(Cl)c2c(c1)N1CCNC[C@@H]1CCO2` [Example 225, (4aS)-8,10-dichloro-2,3,4,4a,5,6-hexahydro-1H-pyrazino[2,1-d][1,5]benzoxazepine], the results for the concentration for a half-maximal effect (EC50) on 5HT2B receptors and on 5HT2C receptors were 0.04 µM and 0.01 µM, respectively. For the same molecule, the values for the maximum response (Emax) on 5HT2B receptors (setting [1]) and on 5HT2C receptors (setting [2]) were 50% and 70%, respectively.

Turning to `Cc1cccc2c1OCC[C@H]1CN(CCF)CCN21` [Example 246, (4aS)-3-(2-fluoroethyl)-8-methyl-2,3,4,4a,5,6-hexahydro-1H-pyrazino[2,1-d][1,5]benzoxazepine], the EC50 at 5HT2B receptors (setting [3]) was more than 10 µM; at 5HT2C receptors (setting [5]) it was 0.007 µM. For the same molecule, at 5HT2C receptors (setting [7]), the Emax worked out at 95%.

Regarding `O=C1CC2CNCCN2c2cc(CCc3ccccc3C(F)(F)F)ccc2N1` (stereo not shown) [Example 146, 10-{2-[2-(trifluoromethyl)phenyl]ethyl}-1,2,3,4,4a,5-hexahydropyrazino[1,2-a][1,5]benzodiazepin-6(7H)-one], the values for the half-maximal effective concentration (EC50) at 5HT2B receptors (setting [3]) and on 5HT2C receptors (setting [5]) were more than 10 µM and 0.005 µM, respectively. The maximal effect (Emax) at 5HT2C receptors (setting [6]) is more than 120%.

With `c1ccc(-c2cccc3c2OCC[C@H]2CNCCN32)cc1` [Example 223, (4aS)-8-phenyl-2,3,4,4a,5,6-hexahydro-1H-pyrazino[2,1-d][1,5]benzoxazepine], the EC50 on 5HT2B receptors (setting [3]) was more than 10 µM; on 5HT2C receptors (setting [5]), 0.02 µM. Besides, the Emax on 5HT2C receptors (setting [6]) worked out at 100%.

For the molecule `O=C1CC2CNCCN2c2cc(-c3ccsc3)ccc2N1` (stereo not shown) [Example 72, 10-(3-thienyl)-1,2,3,4,4a,5-hexahydropyrazino[1,2-a][1,5]benzodiazepin-6(7H)-one], the figures for the EC50 at 5HT2B receptors (setting [3]) and at 5HT2C receptors (setting [5]) were 2 µM and 0.07 µM, respectively. Moreover, the maximal response (Emax) at 5HT2B receptors (setting [4]) is 20%; at 5HT2C receptors (setting [6]), more than 120%.

`O=C1C[C@H]2CNCCN2c2cc(OCCc3cccc(C(F)(F)F)c3)ccc2N1` [Example 173, (4aS)-10-{2-[3-(trifluoromethyl)phenyl]ethoxy}-1,2,3,4,4a,5-hexahydropyrazino[1,2-a][1,5]benzodiazepin-6(7H)-one]: the EC50 on 5HT2B receptors (setting [3]) is more than 10 µM; at 5HT2C receptors (setting [5]), 0.004 µM. Besides, the Emax at 5HT2C receptors (setting [6]) was found to be 110%.

With `C[C@H]1CN2c3ccccc3OCC[C@H]2CN1` [Example 271, (2S,4aS)-2-methyl-2,3,4,4a,5,6-hexahydro-1H-pyrazino[2,1-d][1,5]benzoxazepine], the EC50 is more than 10 µM on 5HT2B receptors and 0.1 µM at 5HT2C receptors. For the same molecule, the Emax at 5HT2C receptors (setting [2]) was found to be 50%.
